The test system of assay [1] is five CRC-derived T1799 mutant BRAF cell lines. Description: CellTiter-Glo proliferation assay, panel summary. The note with it: absence of FGF2, read-out: IC50 values, range over cell lines. The assay is classed as cell-based. The method, then:
All cell lines were purchased from ATTC (SK-MEL-5, SK-MEL-24, UACC-62, COLO 741, COLO-800, WM-266-4, Colo205, LS411N, SW 1417), ECACC (MDST8), DSMZ (CL-34) and NCI (LOX IMVI). […] Cell lines were cultured in 37° C. and 5% CO2 incubator and expanded in T-75 flasks. In all cases cells were thawed from frozen stocks, expanded through passage using 1:3 dilutions, counted and assessed for viability using a ViCell counter (Beckman-Coulter), prior to plating in 96-well or 6-well plates. To split and expand cell lines, cells were dislodged from flasks using 0.25% Trypsin-EDTA (GIBCO, Catalog number 25200). All cell lines were determined to be free of mycoplasma contamination as determined by a PCR detection methodology performed at Idexx Radii (Columbia, Mo., USA) and correctly identified by detection of a panel of SNPs. […]
For CellTiter-Glo™ assays, cells were dispensed into tissue culture treated 96-well plates (Costar, catalog number 3904) with a final volume of 80 μL of medium and at density of 3000 cells per well. […] Plates were incubated for 72 hrs and the effects of compounds on cell proliferation was determined using the CellTiter-Glo™ Luminescent Cell Viability Assay (CTG, Promega) and a Victor™ X4 plate reader (Perkin Elmer). […] Cells were continuously monitored every two hours for seven days with the xCELLigence real-time impedance based cell analyzer. […]

Assay [2] deals with WM-266-4 cells expressing truncated p61-BRAFV600E. Description: ATP-based CTG (Cell Titer Glo) cell viability assay, 72 h. The note with it: Homo sapiens, WM-266-4 p61 BRafV600E, single agent. How it is done: (§1) Compound stocks are prepared in DMSO at a final concentration of 10 mM.
(§2) A-375 and WM-266-4 cells were purchased from American Type Culture Collection (ATCC). The A-375 cells were cultured in DMEM medium (ATCC) and the WM-266-4 cells were cultured in EMEM medium (ATCC) both supplemented with 10% fetal bovine serum (Gibco) and incubated at 37° C./5% CO2. The cell lines engineered to express commonly occurring alleles indicative of resistance were acquired from Novartis-Emeryville. These resistant models include, A-375 cells expressing mutant MEK1P124L, truncated p61-BRAFV600E, or mutant NRASQ61K, and WM-266-4 cells expressing mutant MEK1C121S, truncated p61-BRAFV600E, or mutant NRASQ61K. These cells were cultured in the appropriate parental medium with selection marker G418 and in the presence of 5 uM LFE158 (MEK mutants) or LIH720 (truncated p61-BRAFV600E).
(§3) For screening, cells were seeded in 80 ul of medium in 384-well plates (Thermo Scientific, cat#4332) at 500 (A-375) or 750 (WM-266-4) cell densities per well using a MultiDrop Combi (Thermo-Fisher) with an 8-channel standard cassette. To promote an even distribution of cells across the entire well, cells were briefly centrifuged at 1000 RPM and incubated at room temperature 30 minutes. All plates were incubated at 37° C., 5% CO2 for 24 h prior to compound addition. Compound stock was freshly prepared in the appropriate culture medium, and added using a PAA robot equipped with a 200n1 pin tool. In a minimum of three replicate wells, single agent and combination effects after 72 hours, were assessed by both quantification of cellular ATP levels via Cell Titer Glo (Promega) according to the manufacturer's protocol and by microscopy imaging. For imaging, cells were fixed to the plates and permeabilized with a solution of 10% PFA, 0.3% TX-100 in PBS via a WellMate dispenser with controlled dispensing speeds. Cell nuclei were stained with Hoechst 33342 (H3570, Invitrogen), and all necessary washing steps were performed by a BioTek washer. […]

For assay [3], the system named is A-375 cells expressing truncated p61-BRAFV600E. Described as above. The note with it: Homo sapiens, A-375 p61 BRafV600E, single agent. The method, then:
as §1, §2, §3

Assay [4] deals with WM-266-4 cells expressing mutant NRASQ61K. Described as above. The note with it: Homo sapiens, WM-266-4 NRASQ61K, single agent. How it is done:
as §1, §2, §3

pIC50: −log10 of the molar value.

The term pIC50 denotes the negative decadic logarithm of the IC50, by convention in mol/L. For `COC(=O)N[C@@H](C)CNc1nccc(-c2cn(C(C)C)nc2-c2cc(Cl)cc(NS(C)(=O)=O)c2F)n1` [Compound of Formula (I)], the pIC50 was 6.73 to 8.40 in assay [1], 6.04 in assay [2], 6.24 in assay [3] and 5.95 in assay [4].
